Source: patent US20090022739A1, “MODULATING THE KV1.1 VOLTAGE-GATED POTASSIUM CHANNEL IN T-CELLS FOR REGULATING THE […] AND SECRETION OF TUMOR NECROSIS FACTOR ALPHA (tnf-ALPHA) AND TREATING HUMAN DISEASE OR INJURIES MEDIATED BY […] HIGH OR LOW LEVELS OF TNF-ALPHA” (priority 2005, published 2009)
Where two headings read alike, the source gives them in different places.

How the values were obtained:
[1] = system: normal human T-cells; type: cell-based
Procedure: Human T-Cells: Normal human T-cells were purified from peripheral blood of healthy donors as described (Levite et al, 2000; Ganor et al, 2003; Levite t al, 1998), and the resulting cell population, containing ≧90% T-cells, was suspended in RPMI medium supplemented with 10% FCS, 1% L-Glutamine and antibiotics (Biological Industries, Bet Haemek, Israel) and maintained at 2×10^6 cells/ml (37° C./5% CO2).
Determination of TNF-α, IFN-γ, IL-10 and IL-4 by ELISA: Freshly-purified normal resting human T-cells (2×10^6/ml) were incubated in 24-well plates (Costar, Corning, N.Y.) and the various channel blockers were added. […] Cytokine levels were measured in supernatants after 24 hours for TNF-α and IFN-γ and after 72 hours for IL-10 and IL-4, by quantitative sandwich ELISA (R&D, Minneapolis, Minn.), according to the manufacturer's instructions. […]
These 12 blockers were selected on the basis of their reported ability to block most types of K^+, Na^+, Ca^2+ and Cl^− channels expressed in T-cells (Deutsch et al, 1986; Lewis et al, 1995; Lewis et al, 1988; Rader et al, 1996; Freedman et al, 1995; Koo et al, 1997; Lin et al, 1993; Ishida et al, 1993; Jensen et al, 1999; Kotturi et al, 2003; Phipps et al, 1996; Verheugen et al, 1997; Levite et al, 2000; Chandy et al, 1984). The levels of TNFα secreted into the culture media were tested 24 hours later by ELISA. For positive control, the cells were exposed to the potent phorbol ester PMA, know to activate T-cells in a non-specific manner. The results are shown in FIG. 1A and represent fold increase ±SD TNF-α secretion tested in 2-3 independent experiments. Each ion channel blocker was examined in at least two independent experiments, and at several concentrations covering its effective range (see Materials and Methods). The numbers in each figure next to each blocker represent the highest molar concentration used. Statistical analysis: *P=0.0001, 0.0005, 0.0011 and 0.0005 vs. untreated for MgTX, KTX, DTX-K and PMA, respectively (Student's t-test).

[2] = system: human T-cells; conditions: data not shown
[3] = target: Kv1.1 (Homo sapiens, UniProt Q09470); conditions: Gutman et al, 2003; cited from earlier work
Sequence of Kv1.1 (Q09470 whole entry): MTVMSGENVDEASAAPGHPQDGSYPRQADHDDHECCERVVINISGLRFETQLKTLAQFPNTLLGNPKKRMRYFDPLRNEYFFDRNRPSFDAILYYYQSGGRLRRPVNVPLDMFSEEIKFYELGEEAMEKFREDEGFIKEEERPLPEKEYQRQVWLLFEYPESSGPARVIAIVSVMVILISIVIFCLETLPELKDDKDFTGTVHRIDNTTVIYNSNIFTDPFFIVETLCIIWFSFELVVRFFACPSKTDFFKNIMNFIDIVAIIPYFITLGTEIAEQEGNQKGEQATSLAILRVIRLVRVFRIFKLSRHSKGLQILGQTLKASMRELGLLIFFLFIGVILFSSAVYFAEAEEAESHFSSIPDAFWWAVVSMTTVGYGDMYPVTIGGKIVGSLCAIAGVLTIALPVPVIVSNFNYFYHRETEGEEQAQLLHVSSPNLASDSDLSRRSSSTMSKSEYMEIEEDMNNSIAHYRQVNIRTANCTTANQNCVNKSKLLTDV

Dendrotoxin-K (AAKYCKLPLRIGPCKRKIPSFYYKWKAKQCLPFDYSGCGGNANRFKTIEECRRTCVG) [DTX-K]
IFN-γ secretion ([1]; 100 nM DTX-K, 24 hours, FIG. 2B): not affecting | TNFα secretion ([1]; 100 nM DTX-K, 24 hr, FIG. 2A): elevated | IL-10 secretion ([1]; 100 nM DTX-K, 72 hours, FIG. 2C): not affecting | IL-4 secretion ([1]; 100 nM DTX-K, 72 hours, FIG. 2D): not affecting | TNFα secretion, time course ([1]; 100 nM DTX-K, after 16 hours, individuals 4 and 5): significantly elevated | TNF-α secretion, time course ([1]; 100 nM DTX-K, after 72 hours, individuals 4 and 5): remained significantly high | additional elevation in TNFα levels beyond TCR-activation alone ([1]; DTX-K either during or after TCR-activation, data not shown): did not cause additional elevation | fold increase in TNFα secretion ([1]; FIG. 1A, 24 hours, DTX-K 100 nM, other blockers at highest concentration used, no other stimulus): 33.4 fold increase | fold increase in TNFα secretion ([1]; FIG. 1B, 24 hour exposure, 100 nM DTX-K): 8.7 fold | fold increase in TNFα secretion ([1]; FIG. 1B, 24 hour exposure, 1 μM DTX-K): 39.5 fold | fold increase TNF-α secretion ([1]; individual 1 (FIG. 1C), 24 hours, 100 nM): 22.3 fold | fold increase TNF-α secretion ([1]; individual 2 (FIG. 1D), 24 hours, 100 nM): 8.7 fold | fold increase TNF-α secretion ([1]; individual 3 (FIG. 1E), 24 hours, 100 nM): 49.0 fold | fold increase TNF-α secretion ([1]; individual 4 (FIG. 1F), 24 hours, 100 nM): 34.4 fold | TNF-α secreted to the culture media ([1]; individual 4 (FIG. 1F), 24 hours, 100 nM, untreated 38 pg/ml): 1308 pg/mL | fold increase TNF-α secretion ([1]; individual 5 (FIG. 1G), 24 hours, 100 nM): 2.4 fold | fold increase TNF-α secretion ([1]; individual 6 (FIG. 1H), 24 hours, 100 nM): 2.0 fold | effect on cell survival or proliferation [2]: no significant effect | Ki [3]: 0.016 nM
